Consider three compounds from patent US11339161B2, “Triazolo pyridines as modulators of gamma-secretase” (Boehringer Ingelheim International GmbH, priority 2017, dated 2022).

Where two headings read alike, the source gives them in different places.

The target in one experiment is PTK2 (FAK) (Homo sapiens, UniProt Q05397). Briefly: Z'-LYTE SelectScreen biochemical kinase assay PTK2 (FAK). An outline of the steps:
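Z′-LYTE FRET assay: 12.5-100 ng PTK2 (FAK) with 2 μM Tyr 07 peptide, ATP at apparent Km, in 50 mM HEPES pH 7.5, 10 mM MgCl2, 1 mM EGTA, 0.01% BRIJ-35, 1% DMSO, 60 min at room temperature. Protease development 60 min; coumarin/fluorescein emission ratio read; 10-point 3-fold titrations fit to sigmoidal dose-response.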

For the next experiment, the target named is RET (Homo sapiens, UniProt P07949). Kind of experiment: Z'-LYTE SelectScreen biochemical kinase assay RET. An outline of the steps:
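10 μL reactions with 0.49-3.64 ng RET and 2 μM Tyr 02 peptide in 50 mM HEPES pH 7.5, 10 mM MgCl2, 1 mM EGTA, 0.01% BRIJ-35, 1% DMSO, ATP at apparent Km, 60 min at room temperature. Protease development 60 min, coumarin/fluorescein emission ratio read. IC50 from sigmoidal fit of 10-point 3-fold titrations.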

Another experiment concerns the target FLT4 (VEGFR3) (Homo sapiens, UniProt P35916). Briefly: Z'-LYTE SelectScreen biochemical kinase assay FLT4 (VEGFR3).
The next experiment concerns the target LYN B (Homo sapiens, UniProt P07948). Briefly: Z'-LYTE SelectScreen biochemical kinase assay LYN B. The gist of the method: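 FRET-peptide Z′-LYTE format: 0.85–14.8 ng LYN B with 2 µM Tyr 02 peptide and ATP at apparent Km, in HEPES pH 7.5 buffer with 10 mM MgCl2, 1% DMSO final. Kinase reaction 60 min at room temperature, then 60 min protease development; coumarin/fluorescein emission ratio, 10-point 3-fold titrations fitted sigmoidally.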

Setting [1] is: 10 μmolar compound concentration, ATP at Km app, read-out: PTK2 (FAK) inhibition.
[2] abbreviates: read-out: % Inhibition mean PTK2 (FAK).
[3] abbreviates: 10 μmolar compound concentration, ATP at Km app, read-out: RET inhibition.
Where [4] appears, read: read-out: % Inhibition mean RET.
[5] abbreviates: 10 μmolar compound concentration, ATP at Km app, read-out: FLT4 (VEGFR3) inhibition.
Setting [6] is: read-out: % Inhibition mean FLT4 (VEGFR3).
Where [7] appears, read: 10 μmolar compound concentration, ATP at Km app, read-out: LYN B inhibition.
Setting [8] is: read-out: % Inhibition mean LYN B.

Sequence of FLT4 (VEGFR3) (P35916 25-1363): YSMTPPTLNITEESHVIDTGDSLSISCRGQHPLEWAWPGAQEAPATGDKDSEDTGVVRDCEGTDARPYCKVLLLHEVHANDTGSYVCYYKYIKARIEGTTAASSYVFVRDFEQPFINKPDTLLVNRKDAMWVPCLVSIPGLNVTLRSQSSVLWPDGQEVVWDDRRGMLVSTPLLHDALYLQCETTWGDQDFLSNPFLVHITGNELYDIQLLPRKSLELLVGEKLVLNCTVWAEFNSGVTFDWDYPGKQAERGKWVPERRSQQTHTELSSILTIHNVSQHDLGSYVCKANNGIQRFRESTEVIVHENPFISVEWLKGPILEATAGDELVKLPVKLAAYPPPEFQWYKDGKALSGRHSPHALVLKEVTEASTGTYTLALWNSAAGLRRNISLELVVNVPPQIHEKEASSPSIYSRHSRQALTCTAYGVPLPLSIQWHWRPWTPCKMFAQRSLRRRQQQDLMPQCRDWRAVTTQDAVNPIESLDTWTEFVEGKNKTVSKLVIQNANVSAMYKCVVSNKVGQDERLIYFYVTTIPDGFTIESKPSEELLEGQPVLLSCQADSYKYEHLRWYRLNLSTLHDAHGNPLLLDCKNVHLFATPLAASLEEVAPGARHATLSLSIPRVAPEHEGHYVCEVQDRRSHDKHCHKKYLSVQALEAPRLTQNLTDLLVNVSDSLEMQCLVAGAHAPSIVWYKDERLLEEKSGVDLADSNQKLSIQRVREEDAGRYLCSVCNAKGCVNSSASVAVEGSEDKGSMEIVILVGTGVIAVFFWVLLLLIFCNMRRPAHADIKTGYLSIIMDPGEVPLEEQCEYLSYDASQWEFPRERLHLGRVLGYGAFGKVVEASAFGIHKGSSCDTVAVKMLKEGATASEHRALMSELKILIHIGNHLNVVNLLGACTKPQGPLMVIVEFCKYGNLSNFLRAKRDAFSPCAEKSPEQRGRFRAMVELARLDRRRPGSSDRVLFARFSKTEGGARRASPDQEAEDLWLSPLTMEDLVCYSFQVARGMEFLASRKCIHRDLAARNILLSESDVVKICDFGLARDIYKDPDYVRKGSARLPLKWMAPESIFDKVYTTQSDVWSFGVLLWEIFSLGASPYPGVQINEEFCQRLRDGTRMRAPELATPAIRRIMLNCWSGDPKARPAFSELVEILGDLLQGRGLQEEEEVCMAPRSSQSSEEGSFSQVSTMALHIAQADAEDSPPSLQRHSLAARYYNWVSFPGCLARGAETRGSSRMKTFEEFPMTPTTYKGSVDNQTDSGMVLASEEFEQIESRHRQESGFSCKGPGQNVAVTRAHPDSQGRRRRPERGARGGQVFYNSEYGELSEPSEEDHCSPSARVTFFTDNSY
Sequence of LYN B (P07948 1-491 isoform P07948-2): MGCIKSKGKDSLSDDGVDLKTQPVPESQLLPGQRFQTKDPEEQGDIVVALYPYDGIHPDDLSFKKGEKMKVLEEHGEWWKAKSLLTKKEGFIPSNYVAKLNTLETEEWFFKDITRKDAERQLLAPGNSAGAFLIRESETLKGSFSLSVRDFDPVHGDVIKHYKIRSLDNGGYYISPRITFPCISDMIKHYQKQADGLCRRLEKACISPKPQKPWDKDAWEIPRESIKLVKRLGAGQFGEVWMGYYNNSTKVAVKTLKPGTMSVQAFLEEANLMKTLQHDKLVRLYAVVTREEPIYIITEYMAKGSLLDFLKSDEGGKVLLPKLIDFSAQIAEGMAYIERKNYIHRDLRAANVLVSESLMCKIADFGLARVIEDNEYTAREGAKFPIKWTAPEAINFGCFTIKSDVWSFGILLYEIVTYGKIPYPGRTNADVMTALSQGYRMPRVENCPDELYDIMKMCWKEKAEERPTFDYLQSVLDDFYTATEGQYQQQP
Sequence of PTK2 (FAK) (Q05397 whole entry): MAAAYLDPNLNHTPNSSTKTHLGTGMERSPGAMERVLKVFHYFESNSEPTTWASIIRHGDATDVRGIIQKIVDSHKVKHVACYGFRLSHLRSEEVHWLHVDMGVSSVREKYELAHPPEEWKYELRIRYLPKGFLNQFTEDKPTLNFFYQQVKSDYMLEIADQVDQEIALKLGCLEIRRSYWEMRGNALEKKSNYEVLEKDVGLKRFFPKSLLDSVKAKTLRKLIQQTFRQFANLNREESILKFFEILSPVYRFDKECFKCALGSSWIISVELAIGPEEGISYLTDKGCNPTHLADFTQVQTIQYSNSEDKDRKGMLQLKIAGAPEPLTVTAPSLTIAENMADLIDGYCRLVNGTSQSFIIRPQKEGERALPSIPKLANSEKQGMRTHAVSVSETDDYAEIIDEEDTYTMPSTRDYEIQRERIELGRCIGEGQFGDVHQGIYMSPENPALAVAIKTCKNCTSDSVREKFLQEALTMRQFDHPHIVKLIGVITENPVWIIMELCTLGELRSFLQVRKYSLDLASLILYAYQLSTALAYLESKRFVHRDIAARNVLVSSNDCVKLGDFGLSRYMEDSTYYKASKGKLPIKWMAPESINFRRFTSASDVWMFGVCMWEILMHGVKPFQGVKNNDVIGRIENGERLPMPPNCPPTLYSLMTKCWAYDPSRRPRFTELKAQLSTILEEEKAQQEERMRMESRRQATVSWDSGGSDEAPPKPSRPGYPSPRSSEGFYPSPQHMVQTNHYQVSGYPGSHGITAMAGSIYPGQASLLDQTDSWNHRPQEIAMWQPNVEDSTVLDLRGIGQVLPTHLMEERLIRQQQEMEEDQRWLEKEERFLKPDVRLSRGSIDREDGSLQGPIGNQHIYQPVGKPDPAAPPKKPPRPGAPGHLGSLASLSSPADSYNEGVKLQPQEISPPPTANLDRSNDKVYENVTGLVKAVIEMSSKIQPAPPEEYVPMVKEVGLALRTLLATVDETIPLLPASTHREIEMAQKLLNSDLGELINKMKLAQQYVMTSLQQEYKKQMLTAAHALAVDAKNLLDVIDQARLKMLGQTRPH
Sequence of RET (P07949 29-1114): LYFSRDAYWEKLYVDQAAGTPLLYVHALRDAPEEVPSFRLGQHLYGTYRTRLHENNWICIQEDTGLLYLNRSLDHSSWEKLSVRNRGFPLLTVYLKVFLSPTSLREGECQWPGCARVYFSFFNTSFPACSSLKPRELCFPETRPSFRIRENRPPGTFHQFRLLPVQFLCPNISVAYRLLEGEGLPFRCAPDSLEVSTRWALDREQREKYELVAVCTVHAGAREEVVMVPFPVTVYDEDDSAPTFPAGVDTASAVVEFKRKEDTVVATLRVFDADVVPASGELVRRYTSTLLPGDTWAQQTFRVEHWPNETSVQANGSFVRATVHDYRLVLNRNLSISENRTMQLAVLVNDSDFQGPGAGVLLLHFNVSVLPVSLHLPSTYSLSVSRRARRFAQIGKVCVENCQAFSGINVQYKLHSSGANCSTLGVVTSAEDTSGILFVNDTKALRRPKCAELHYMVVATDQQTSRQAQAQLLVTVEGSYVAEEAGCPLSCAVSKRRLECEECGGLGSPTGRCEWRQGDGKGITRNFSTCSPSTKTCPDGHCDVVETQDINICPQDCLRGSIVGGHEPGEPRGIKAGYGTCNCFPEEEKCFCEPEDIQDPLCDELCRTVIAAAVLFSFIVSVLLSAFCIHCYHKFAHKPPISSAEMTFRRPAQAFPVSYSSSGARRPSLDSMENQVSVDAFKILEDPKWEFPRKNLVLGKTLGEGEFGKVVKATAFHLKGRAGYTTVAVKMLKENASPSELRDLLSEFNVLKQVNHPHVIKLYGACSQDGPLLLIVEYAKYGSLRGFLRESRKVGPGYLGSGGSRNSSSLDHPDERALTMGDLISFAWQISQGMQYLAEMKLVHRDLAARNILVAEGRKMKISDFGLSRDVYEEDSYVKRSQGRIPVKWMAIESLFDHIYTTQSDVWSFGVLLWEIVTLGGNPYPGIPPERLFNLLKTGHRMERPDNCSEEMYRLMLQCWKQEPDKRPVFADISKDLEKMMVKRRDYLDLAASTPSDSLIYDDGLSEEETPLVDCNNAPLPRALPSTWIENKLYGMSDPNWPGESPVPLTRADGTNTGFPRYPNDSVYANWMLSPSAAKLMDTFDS

Take `Cc1cc(F)ccc1-c1cccn2nc(NC3CCc4cnn(C)c4C3)nc12` (stereo not drawn) [Example 40, [8-(4-Fluoro-2-methyl-phenyl)-[1,2,4]triazolo[1,5-a]pyridine-2-yl]-(1-methyl-4,5,6,7-tetrahydro-1H-indazol-6-yl)-amine]: the inhibition at 10 µM at PTK2 (FAK) (setting [1]) was below 40%; at PTK2 (FAK) (setting [2]), 18%; at RET (setting [3]), below 40%; on RET (setting [4]), 18%; at FLT4 (VEGFR3) (setting [5]) it was below 40%; at FLT4 (VEGFR3) (setting [6]) it was 16%. The figures for the inhibition at 10 µM at LYN B (setting [7]) and on LYN B (setting [8]) were below 40% and 20%, respectively.
In the case of `CCn1ncc2c1CCC(Nc1nc3c(-c4ccc(OC)nc4)cccn3n1)C2` (stereo not drawn) [Example 71, (1-Ethyl-4,5,6,7-tetrahydro-1H-indazol-5-yl)-[8-(6-methoxy-pyridin-3-yl)-[1,2,4]triazolo[1,5-a]pyridine-2-yl]-amine], the inhibition at 10 µM on PTK2 (FAK) (setting [1]) was below 40%; on PTK2 (FAK) (setting [2]), 30%; at RET (setting [3]) it was below 40%; at RET (setting [4]) it was 30%; at FLT4 (VEGFR3) (setting [5]) it was 40 to 80%; at FLT4 (VEGFR3) (setting [6]), 62%. Besides, the inhibition at 10 µM at LYN B (setting [7]) was below 40%; on LYN B (setting [8]), 24%.
With `CCn1nnc2c1CCC(Nc1nc3c(-c4ccc(F)cc4C)cccn3n1)C2` (stereo not drawn) [Example 51, (1-Ethyl-4,5,6,7-tetrahydro-1H-benzotriazol-5-yl)-[8-(4-fluoro-2-methyl-phenyl)-[1,2,4]triazolo[1,5-a]pyridine-2-yl]-amine], the inhibition at 10 µM is below 40% at PTK2 (FAK) (setting [1]); 27% on PTK2 (FAK) (setting [2]); below 40% at RET (setting [3]); 2% at RET (setting [4]); below 40% on FLT4 (VEGFR3) (setting [5]); 15% at FLT4 (VEGFR3) (setting [6]). Also, the inhibition at 10 µM at LYN B (setting [7]) was below 40%; on LYN B (setting [8]), 7%.

In general, inhibition refers to the share of the control response that was lost under treatment.
